From patent US20250195530A1, “POLQ INHIBITORS” (ASTRAZENECA AB, priority 2022, published 2025) come the findings set out here.

The subject of one experiment is DLD-1 BRCA2−/− cells. The experiment can be described thus: Homologous recombination synthetic lethal inhibition of proliferation, DLD-1 BRCA2-/- (Cell Titre Glo 3D). Format: cell-based. As to conditions: Homo sapiens, DLD-1, 288 h, DLD-1 BRCA2−/− cells, 12 days; read-out: POLQ PD Prolif Lumin BRCA2 −/− mean pIC50 (converted). In outline:
(§1)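 Wild-type DLD-1 serves as the control for non-specific toxicity, and BRCA2-null DLD-1 as the homologous-recombination-deficient line. Both grew with compound from 10 μM down to 0.51 nM, re-dosed after 6 days. Luminescent ATP content (CellTiter-Glo 3D) was read after 7 or 12 days, respectively, to give IC50 values.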

The subject of a further experiment is DLD-1 cells. The experiment can be described thus: Inhibition of proliferation, DLD-1 BRCA2 wt control (Cell Titre Glo 3D). As to conditions: Homo sapiens, DLD-1, 168 h, DLD-1 BRCA2 wt cells, 7 days; read-out: POLQ PD Prolif Lumin DLD1 mean pIC50 (converted). Type of experiment: cell-based. In outline:
as §1

SMILES strings stand for the structures. Where only a bound is given, the exact number is not on record here.

With `COc1c(OCCN2CCNCC2)ccc(-c2nc3c(OC4(C)CC4)ncnc3n2Cc2ccccc2)c1Cl` [Example J3, 9-benzyl-8-(2-chloro-3-methoxy-4-(2-(piperazin-1-yl)ethoxy)phenyl)-6-(1-methylcyclopropoxy)-9H-purine], the IC50 is 501 nM with DLD-1 BRCA2−/− cells and 3160 nM in the experiment with DLD-1 cells.

As to `CC1(Oc2ncnc3c2nc(-c2cc(Cl)c(OCCN4CCNCC4)cc2Cl)n3Cc2ccccc2)CC1` [Example J4, 9-benzyl-8-(2,5-dichloro-4-(2-(piperazin-1-yl)ethoxy)phenyl)-6-(1-methylcyclopropoxy)-9H-purine], the figures for the IC50 with DLD-1 BRCA2−/− cells and with DLD-1 cells were 50.1 nM and 3980 nM, respectively.

For `Cc1cc(OCCN2CCNCC2)ncc1-c1nc2c(OC3(C)CC3)ncnc2n1Cc1ccccc1Cl` [Example J5, 9-(2-chlorobenzyl)-8-(4-methyl-6-(2-(piperazin-1-yl)ethoxy)pyridin-3-yl)-6-(1-methylcyclopropoxy)-9H-purine], the figures for the IC50 in the experiment on DLD-1 BRCA2−/− cells and with DLD-1 cells were 1000 nM and greater than 10000 nM, respectively.

As for `Cc1cc(OCCN2CCNCC2)ncc1-c1nc2c(OC3(C)CC3)ncnc2n1Cc1cccc(Cl)c1` [Example J6, 9-(3-chlorobenzyl)-8-(4-methyl-6-(2-(piperazin-1-yl)ethoxy)pyridin-3-yl)-6-(1-methylcyclopropoxy)-9H-purine], the IC50 in the experiment with DLD-1 BRCA2−/− cells was 631 nM; in the experiment on DLD-1 cells, greater than 10000 nM.

Regarding `CC1(Oc2ncnc3c2nc(-c2ccc(OCCN4CCNCC4)cc2Cl)n3Cc2ccccn2)CCC1` [Example J7, 8-(2-chloro-4-(2-(piperazin-1-yl)ethoxy)phenyl)-6-(1-methylcyclobutoxy)-9-(pyridin-2-ylmethyl)-9H-purine], the IC50 was 316 nM in the experiment on DLD-1 BRCA2−/− cells and 7940 nM in the experiment with DLD-1 cells.

Take `CC1(Oc2ncnc3c2nc(-c2ccc(OCCN4CCNCC4)cc2Cl)n3CCc2cccnc2)CC1` [Example J8, 8-(2-chloro-4-(2-(piperazin-1-yl)ethoxy)phenyl)-6-(1-methylcyclopropoxy)-9-(2-(pyridin-3-yl)ethyl)-9H-purine]: the IC50 in the experiment on DLD-1 BRCA2−/− cells is greater than 10000 nM; in the experiment on DLD-1 cells, 7940 nM.

As for `C[C@H](Cn1c(-c2ccc(OCCN3CCNCC3)cc2Cl)nc2c(OC3(C)CC3)ncnc21)c1ccccc1` [Example J9, (S)-8-(2-chloro-4-(2-(piperazin-1-yl)ethoxy)phenyl)-6-(1-methylcyclopropoxy)-9-(2-phenylpropyl)-9H-purine], the IC50 was 2510 nM in the experiment with DLD-1 BRCA2−/− cells and 5010 nM in the experiment with DLD-1 cells.

Regarding `C[C@@H](Cn1c(-c2ccc(OCCN3CCNCC3)cc2Cl)nc2c(OC3(C)CC3)ncnc21)c1ccccc1` [Example J10, (R)-8-(2-chloro-4-(2-(piperazin-1-yl)ethoxy)phenyl)-6-(1-methylcyclopropoxy)-9-(2-phenylpropyl)-9H-purine], the IC50 is 631 nM in the experiment with DLD-1 BRCA2−/− cells and 3980 nM in the experiment on DLD-1 cells.

As for `CC1(Oc2ncnc3c2nc(-c2ccc(OCCN4CCNCC4)cc2Cl)n3CCc2ccccc2)CC1` [Example J12, 8-(2-chloro-4-(2-(piperazin-1-yl)ethoxy)phenyl)-6-(1-methylcyclopropoxy)-9-phenethyl-9H-purine], the figures for the IC50 in the experiment with DLD-1 BRCA2−/− cells and in the experiment with DLD-1 cells were 501 nM and greater than 10000 nM, respectively.

In the case of `CC1(Oc2ncnc3c2nc(-c2ccc(OCCN4CCNCC4)cc2Cl)n3Cc2cccc(Cl)c2)CC1` [Example J13, 8-(2-chloro-4-(2-(piperazin-1-yl)ethoxy)phenyl)-9-(3-chlorobenzyl)-6-(1-methylcyclopropoxy)-9H-purine], the IC50 is 50.1 nM in the experiment on DLD-1 BRCA2−/− cells and 3160 nM with DLD-1 cells.

In the case of `CN1CCN(CCOc2ccc(-c3nc4c(OC5(C)CC5)ncnc4n3Cc3ccncc3)c(Cl)c2)CC1` [Example K1, 8-(2-chloro-4-(2-(4-methylpiperazin-1-yl)ethoxy)phenyl)-6-(1-methylcyclopropoxy)-9-(pyridin-4-ylmethyl)-9H-purine], the IC50 with DLD-1 BRCA2−/− cells is 1000 nM; with DLD-1 cells, greater than 10000 nM.

Turning to `CC1(Oc2ncnc3c2nc(-c2ccc(OCCN4CCNCC4)cc2Cl)n3Cc2cscn2)CC1` [Example K2, 4-((8-(2-chloro-4-(2-(piperazin-1-yl)ethoxy)phenyl)-6-(1-methylcyclopropoxy)-9H-purin-9-yl)methyl)thiazole], the results for the IC50 in the experiment on DLD-1 BRCA2−/− cells and in the experiment on DLD-1 cells were 2000 nM and 6310 nM, respectively.

With `CC1(Oc2ncnc3c2nc(-c2ccc(OCCN4CCNCC4)cc2Cl)n3Cc2ccc(Cl)cn2)CC1` [Example K3, 8-(2-chloro-4-(2-(piperazin-1-yl)ethoxy)phenyl)-9-((5-chloropyridin-2-yl)methyl)-6-(1-methylcyclopropoxy)-9H-purine], the IC50 in the experiment on DLD-1 BRCA2−/− cells is 1260 nM; in the experiment with DLD-1 cells it was greater than 10000 nM.

Regarding `CC1(Oc2ncnc3c2nc(-c2ccc(OCCN4CCNCC4)cc2Cl)n3Cc2nccs2)CC1` [Example K4, 2-((8-(2-chloro-4-(2-(piperazin-1-yl)ethoxy)phenyl)-6-(1-methylcyclopropoxy)-9H-purin-9-yl)methyl)thiazole], the IC50 in the experiment with DLD-1 BRCA2−/− cells was 3980 nM; in the experiment with DLD-1 cells it was greater than 10000 nM.

As for `CC1(Oc2ncnc3c2nc(-c2ccc(OCCN4CCNCC4)cc2Cl)n3Cc2ncccc2Cl)CC1` [Example K5, 8-(2-chloro-4-(2-(piperazin-1-yl)ethoxy)phenyl)-9-((3-chloropyridin-2-yl)methyl)-6-(1-methylcyclopropoxy)-9H-purine], the figures for the IC50 with DLD-1 BRCA2−/− cells and in the experiment with DLD-1 cells were 2510 nM and greater than 10000 nM, respectively.

For `Cc1nc(Cn2c(-c3ccc(OCCN4CCNCC4)cc3Cl)nc3c(OC4(C)CC4)ncnc32)cs1` [Example K6, 4-((8-(2-chloro-4-(2-(piperazin-1-yl)ethoxy)phenyl)-6-(1-methylcyclopropoxy)-9H-purin-9-yl)methyl)-2-methylthiazole], the values for the IC50 in the experiment with DLD-1 BRCA2−/− cells and in the experiment with DLD-1 cells were 3980 nM and greater than 10000 nM, respectively.

Take `Cc1cccc(Cn2c(-c3ccc(OCCN4CCNCC4)cc3Cl)nc3c(OC4(C)CC4)ncnc32)n1` [Example K7, 8-(2-chloro-4-(2-(piperazin-1-yl)ethoxy)phenyl)-6-(1-methylcyclopropoxy)-9-((6-methylpyridin-2-yl)methyl)-9H-purine]: the IC50 is 1260 nM in the experiment with DLD-1 BRCA2−/− cells and greater than 10000 nM with DLD-1 cells.

As for `CC1(Oc2ncnc3c2nc(-c2ccc(OCCN4CCNCC4)cc2Cl)n3Cc2cc(C(F)(F)F)ccn2)CC1` [Example K8, 8-(2-chloro-4-(2-(piperazin-1-yl)ethoxy)phenyl)-6-(1-methylcyclopropoxy)-9-((4-(trifluoromethyl)pyridin-2-yl)methyl)-9H-purine], the IC50 with DLD-1 BRCA2−/− cells was 398 nM; with DLD-1 cells it was 7940 nM.

Turning to `CC1(Oc2ncnc3c2nc(-c2ccc(OCCN4CCNCC4)cc2Cl)n3Cc2cccc(C#N)n2)CC1` [Example K9, 6-((8-(2-chloro-4-(2-(piperazin-1-yl)ethoxy)phenyl)-6-(1-methylcyclopropoxy)-9H-purin-9-yl)methyl)picolinonitrile], the IC50 in the experiment on DLD-1 BRCA2−/− cells was 1580 nM; in the experiment on DLD-1 cells it was greater than 10000 nM.

As to `COc1cccc(Cn2c(-c3ccc(OCCN4CCNCC4)cc3Cl)nc3c(OC4(C)CC4)ncnc32)n1` [Example K10, 8-(2-chloro-4-(2-(piperazin-1-yl)ethoxy)phenyl)-9-((6-methoxypyridin-2-yl)methyl)-6-(1-methylcyclopropoxy)-9H-purine], the IC50 was 1580 nM in the experiment on DLD-1 BRCA2−/− cells and greater than 10000 nM with DLD-1 cells.

Consider `CC1(Oc2ncnc3c2nc(-c2ccc(OCCN4CCNCC4)cc2Cl)n3Cc2ncccc2C#N)CC1` [Example K11, 2-((8-(2-chloro-4-(2-(piperazin-1-yl)ethoxy)phenyl)-6-(1-methylcyclopropoxy)-9H-purin-9-yl)methyl)nicotinonitrile], for which the figures for the IC50 with DLD-1 BRCA2−/− cells and with DLD-1 cells were 2000 nM and greater than 10000 nM, respectively.
